From ChEMBL document CHEMBL1201862, “PubChem BioAssay data set” (2004)
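In this assay, cells in 96-well plates receive the compound at five concentrations for 48 hours. Endpoints are linearly interpolated between the surrounding concentrations. GI50 marks 50% less growth.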 The source made the active and inactive calls. Cut-off read from the data, not from the text of the source: active = GI50 up to about 1.1 µM and inactive = higher.

Experiments:
Experiment in all cases: NCI anticancer screen, dose series, 48 h
SF-539 = system: SF-539
A498 = system: A498
Malme-3M = system: Malme-3M
RXF 393 = system: RXF 393
UO-31 = system: UO-31
SK-MEL-5 = system: SK-MEL-5
HCT-116 = system: HCT-116
NCI-H460 = system: NCI-H460
DMS-114 = system: DMS-114
LOX IMVI = system: LOX IMVI
UACC-62 = system: UACC-62
A549 = system: A549
U-251 = system: U-251
HOP-62 = system: HOP-62
NCI-H226 = system: NCI-H226
HCC 2998 = system: HCC 2998
HT-29 = system: HT-29
HL-60 = system: HL-60
COLO 205 = system: COLO 205
M14 = system: M14

Measured: GI50

COC(=O)c1ccc(/N=N/N(C)COc2ccc([N+](=O)[O-])cc2)cc1
inactive: SF-539 88.7 µM | A498 > 87.5 µM | Malme-3M > 100 µM | RXF 393 > 85.3 µM | UO-31 > 100 µM | SK-MEL-5 > 96.8 µM | HCT-116 > 100 µM | NCI-H460 15.5 µM | DMS-114 > 100 µM | LOX IMVI > 86.9 µM | UACC-62 33.3 µM | A549 > 100 µM | U-251 > 100 µM | HOP-62 > 100 µM | NCI-H226 > 100 µM | HCC 2998 > 74.5 µM | HT-29 > 94 µM | HL-60 21.8 µM | COLO 205 > 57.3 µM

O=C(O)Cc1cccc2c1Oc1ccccc1S2
inactive: M14 > 100 µM | SF-539 > 100 µM | A498 > 100 µM | Malme-3M > 100 µM | RXF 393 > 100 µM | UO-31 > 100 µM | SK-MEL-5 > 100 µM | HCT-116 > 100 µM | NCI-H460 > 100 µM | DMS-114 > 100 µM | LOX IMVI > 100 µM | UACC-62 > 100 µM | A549 > 100 µM | U-251 > 100 µM | HOP-62 > 100 µM | NCI-H226 > 100 µM | HCC 2998 > 100 µM | HT-29 > 100 µM | HL-60 > 100 µM | COLO 205 > 100 µM

O=NN1C(c2ccccc2)CCCC1c1ccccc1 (configuration not stated)
inactive: SF-539 > 100 µM | A498 15.1 µM | Malme-3M > 65.5 µM | RXF 393 44.5 µM | UO-31 42.4 µM | SK-MEL-5 49.4 µM | HCT-116 47.9 µM | NCI-H460 43.9 µM | DMS-114 28.6 µM | LOX IMVI 74.8 µM | UACC-62 > 94.8 µM | A549 > 71 µM | U-251 75.5 µM | HOP-62 > 100 µM | NCI-H226 > 100 µM | HCC 2998 80.4 µM | HT-29 22.9 µM | HL-60 26.8 µM | COLO 205 50.8 µM

C[C@]12CCC(=O)C(O)=C1CC[C@@H]1[C@@H]2CC[C@]2(C)C(=O)CC[C@@H]12 [FORMESTANE]
inactive: M14 > 100 µM | SF-539 > 100 µM | A498 > 84.5 µM | Malme-3M > 100 µM | RXF 393 > 100 µM | UO-31 > 90.2 µM | SK-MEL-5 > 93.5 µM | HCT-116 > 93.1 µM | NCI-H460 > 100 µM | DMS-114 > 100 µM | LOX IMVI > 100 µM | UACC-62 > 100 µM | A549 > 100 µM | U-251 > 100 µM | HOP-62 > 100 µM | NCI-H226 > 100 µM | HCC 2998 > 100 µM | HT-29 > 92.7 µM | HL-60 > 80.9 µM | COLO 205 > 100 µM

O=S(=O)(O)c1ccc(/N=N\c2ccc(/N=N/c3ccc(/C=C/c4ccc(/N=[N+](\[O-])c5ccc(/C=C/c6ccc(/N=N/c7ccc(/N=N/c8ccc(S(=O)(=O)O)cc8)c8ccccc78)cc6S(=O)(=O)O)c(S(=O)(=O)O)c5)cc4S(=O)(=O)O)c(S(=O)(=O)O)c3)c3ccccc23)cc1
inactive: SF-539 > 84.7 µM | A498 > 100 µM | Malme-3M > 100 µM | RXF 393 > 100 µM | UO-31 57.4 µM | SK-MEL-5 > 100 µM | HCT-116 > 100 µM | NCI-H460 > 100 µM | DMS-114 > 100 µM | LOX IMVI > 100 µM | UACC-62 > 100 µM | A549 > 89.1 µM | U-251 > 91.4 µM | HOP-62 > 100 µM | NCI-H226 > 83.4 µM | HCC 2998 > 100 µM | HT-29 > 100 µM | HL-60 > 100 µM | COLO 205 > 100 µM
